Measured values: article PMC8949503, “Radiosynthesis and Preclinical Evaluation of Bispecific PSMA/FAP Heterodimers for Tumor Imaging” (Pharmaceuticals, 2022)
Values belong to the compound of their own block, whether it stands above or below them.

Columns and labels:
FAP = target: T1, FAP (Homo sapiens, UniProt Q12884); experiment: competitive binding to FAP on A549-FAP cells vs [18F]FAPI-42; details: for IC50: competition with [18F]FAPI-42, 60 min 37 °C
T1 construct: expressed in transfected cells
T1 sequence (Q12884 1-760): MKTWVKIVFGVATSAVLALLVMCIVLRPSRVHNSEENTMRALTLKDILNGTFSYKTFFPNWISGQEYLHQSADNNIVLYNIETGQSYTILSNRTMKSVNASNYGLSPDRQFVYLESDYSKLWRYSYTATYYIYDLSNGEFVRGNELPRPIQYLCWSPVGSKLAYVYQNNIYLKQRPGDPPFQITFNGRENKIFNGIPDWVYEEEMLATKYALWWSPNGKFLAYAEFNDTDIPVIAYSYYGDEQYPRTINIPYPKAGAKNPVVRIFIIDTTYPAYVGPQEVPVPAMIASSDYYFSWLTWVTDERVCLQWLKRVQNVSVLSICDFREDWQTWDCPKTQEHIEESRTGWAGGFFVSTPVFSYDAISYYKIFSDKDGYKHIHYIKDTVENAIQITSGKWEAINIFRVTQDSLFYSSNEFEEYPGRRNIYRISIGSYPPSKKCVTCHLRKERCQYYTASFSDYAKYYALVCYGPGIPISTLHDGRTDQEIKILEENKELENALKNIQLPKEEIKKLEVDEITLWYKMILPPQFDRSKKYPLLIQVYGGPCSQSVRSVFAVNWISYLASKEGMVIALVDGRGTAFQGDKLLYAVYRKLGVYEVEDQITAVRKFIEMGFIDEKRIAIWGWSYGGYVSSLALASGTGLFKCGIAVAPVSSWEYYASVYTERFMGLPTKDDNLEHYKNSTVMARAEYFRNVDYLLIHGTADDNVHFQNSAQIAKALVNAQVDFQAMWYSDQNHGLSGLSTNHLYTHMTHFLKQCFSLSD
Method: (§1) PSMA-positive 22Rv1 cells (purchased from Institute of Biochemistry and Cell Biology, Shanghai, China) and stably FAP-transfected A549-FAP cells (acquired using lentiviral infection) were used for the cell-based experiments. The 22Rv1 cells were cultivated in RPMI-1640 medium (Gibco) at 37 °C/5% carbon dioxide, while the A549-FAP cells were cultivated in DMEM medium. Both media were supplemented with 10% heat-inactivated fetal bovine serum (FBS) and 1% penicillin/streptomycin (Gibco). Puromycin (1 µg/mL) was also added to the media to maintain FAP expression.
(§2) Cells were seeded in 12-well plates 2 days in advance to achieve a final confluence of approximately 80–90% (4–5 × 10^5 cells/well). The medium was displaced by 1 mL fresh medium without FBS. The method of cell studies was similar to a method reported previously. For the competitive binding experiments, cells were incubated with the known radiotracers ([^18F]FAPI-42 for the FAP receptor and [^18F]AlF-PSMA-BCH for PSMA) in the presence of 7 different concentrations (10^−5–10^−11 M) of the corresponding unlabeled heterodimers or corresponding monomer and incubated for 60 min at 37 °C. In all experiments, the cells were washed twice with PBS, lysed with 1 M NaOH, and counted using a γ-counter. IC50 values were calculated by fitting the data using a nonlinear regression algorithm (implemented in SPSS). For the radioligand binding studies, the cells were incubated for 5, 15, 30, 60, or 120 min at 37 °C after the addition of the heterodimer or corresponding monomeric radiotracer radiotracers. The blocking experiments were determined by adding the corresponding competitors (4.4 μM 2-PMPA for 22Rv1 cells and 2.3 μM DOTA-FAPI-04 for A549-FAP cells). Radioactivity was measured using a γ-counter, normalized to 1 million cells (1 mio cells), and calculated as the percentage of the applied dose (%ID/1 mio cells). For the internalization experiments, the cells were incubated with the radiolabeled compound for 60 min, washed twice with 1 mL PBS, and then incubated for 10 min with 1 mL glycine HCl (1 M, pH 2.2) to detach the extracellular bound tracer. Next, the cells were washed with PBS (2.0 mL) and lysed with 1 M NaOH (1.5 mL). The radioactivity of the acid wash solution (extracellularly bound tracer) and cell lysate (internalized tracer) was assessed separately using a γ-counter. For the efflux experiments, the radioactive medium was removed after 60 min incubation and replaced with non-radioactive medium. At predetermined time points of 15, 30, 60, and 120 min, the cells were washed with 1.0 mL PBS three times and then lysed. The radioactivity of the remaining cells was assessed using a γ-counter. Each experiment was conducted three times with three or four replicates per independent experiment.

PSMA = target: T2, PSMA (Homo sapiens, UniProt Q04609); experiment: competitive binding to PSMA on 22Rv1 cells vs [18F]AlF-PSMA-BCH; details: for IC50: competition with [18F]AlF-PSMA-BCH, 60 min 37 °C
T2 construct: PSMA-positive 22Rv1 cells; host or cells: 22Rv1 cells
T2 sequence (Q04609 whole entry): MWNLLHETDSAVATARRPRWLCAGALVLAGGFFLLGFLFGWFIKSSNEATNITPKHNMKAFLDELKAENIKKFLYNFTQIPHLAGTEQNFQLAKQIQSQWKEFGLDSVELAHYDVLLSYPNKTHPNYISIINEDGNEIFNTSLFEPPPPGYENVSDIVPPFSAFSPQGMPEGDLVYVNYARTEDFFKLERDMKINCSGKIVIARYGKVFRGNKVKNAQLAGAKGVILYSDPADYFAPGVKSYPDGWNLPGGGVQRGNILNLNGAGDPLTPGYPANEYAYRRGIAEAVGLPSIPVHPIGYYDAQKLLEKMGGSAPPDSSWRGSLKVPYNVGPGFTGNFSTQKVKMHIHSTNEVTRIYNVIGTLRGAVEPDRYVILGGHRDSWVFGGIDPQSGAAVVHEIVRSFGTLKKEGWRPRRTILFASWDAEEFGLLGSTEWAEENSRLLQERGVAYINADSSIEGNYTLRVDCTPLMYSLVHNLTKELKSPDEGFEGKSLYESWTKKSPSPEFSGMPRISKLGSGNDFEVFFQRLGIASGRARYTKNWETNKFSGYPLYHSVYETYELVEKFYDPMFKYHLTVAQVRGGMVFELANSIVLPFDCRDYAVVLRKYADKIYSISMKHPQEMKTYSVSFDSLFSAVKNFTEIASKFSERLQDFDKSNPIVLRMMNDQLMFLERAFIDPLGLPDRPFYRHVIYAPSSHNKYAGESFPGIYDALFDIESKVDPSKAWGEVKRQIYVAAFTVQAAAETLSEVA
Method: as §1, §2

[1] = test system: 22Rv1 tumor-bearing nude mice; experiment: tissue biodistribution and blocking in 22Rv1 tumor-bearing nude mice; assay type: in vivo; details: 1 h p.i.
Method: (§3) For the biodistribution and micro-PET imaging studies, male BALB/c nude mice (6–8 weeks) were subcutaneously inoculated with 1 × 10^7 22Rv1 or 5 × 10^6 A549-FAP cells in the right shoulder. Mice were imaged or used in the biodistribution studies when the tumor reached 5–10 mm in diameter.
(§4) Mice bearing 22Rv1 or A549-FAP (n = 4 in each group) tumors were euthanized 60 min after intravenous administration of each tracer (740–1480 KBq/mouse). In the blocking group, the same experiment was conducted by co-injecting 50 μg of 2-PMPA for mice bearing 22Rv1 tumors or 50 μg of DOTA-FAPI-04 for mice bearing A549-FAP tumors. The organs of interest and tumors were quickly dissected and weighed. Radioactivity was assessed using a γ-counter and calculated as the percentage injected dose per gram (%ID/g).

[2] = test system: A549-FAP tumor-bearing nude mice; experiment: tissue biodistribution and blocking in A549-FAP tumor-bearing nude mice; assay type: in vivo; details: 1 h p.i.
Method: as §3, §4

fold higher in potency than the monomer NOTA-FAPI-42 (FAP): ~3 fold | IC50 (FAP): 5.8 nM | fold less potent than the monomer NOTA-PSMA-BCH (PSMA): ~4 fold | IC50 (PSMA): 9.8 nM
Compound: N#C[C@@H]1CC(F)(F)CN1C(=O)CNC(=O)c1ccnc2ccc(OCCCN3CCN(C(=O)CCC(=O)NCCCC[C@H](NC(=O)CN4CCN(CC(=O)O)CCN(CC(=O)O)CC4)C(=O)NCC4CCC(C(=O)N[C@H](Cc5ccc6ccccc6c5)C(=O)NCCCC[C@H](NC(=O)N[C@@H](CCC(=O)O)C(=O)O)C(=O)O)CC4)CC3)cc12 (stereo partly drawn) [NOTA-PSMA-FAPI-02]

fold higher in potency than the monomer NOTA-FAPI-42 (FAP): approximately 9 fold | IC50 (FAP): 1.7 nM | fold less potent than the monomer NOTA-PSMA-BCH (PSMA): approximately 13 fold | IC50 (PSMA): 33.7 nM
Compound: N#C[C@@H]1CC(F)(F)CN1C(=O)CNC(=O)c1ccnc2ccc(OCCCC(=O)NCCCC[C@H](NC(=O)CN3CCN(CC(=O)O)CCN(CC(=O)O)CC3)C(=O)NCC3CCC(C(=O)N[C@H](Cc4ccc5ccccc5c4)C(=O)NCCCC[C@H](NC(=O)N[C@@H](CCC(=O)O)C(=O)O)C(=O)O)CC3)cc12 (stereo partly drawn) [NOTA-PSMA-FAPI-01]

22Rv1 tumor* uptake [1]: 6.44 ± 1.78 %ID/g | Blood uptake [1]: 0.56 ± 0.19 %ID/g | Bone uptake [1]: 0.84 ± 0.39 %ID/g | Brain uptake [1]: 0.14 ± 0.04 %ID/g | Gall bladder uptake [1]: 6.62 ± 4.25 %ID/g | Heart uptake [1]: 0.45 ± 0.10 %ID/g | Kidney* uptake [1]: 66.10 ± 18.80 %ID/g | Liver uptake [1]: 0.47 ± 0.03 %ID/g | Lung uptake [1]: 0.86 ± 0.25 %ID/g | Muscle uptake [1]: 0.31 ± 0.10 %ID/g | Small intestine uptake [1]: 0.78 ± 0.12 %ID/g | Spleen uptake [1]: 1.33 ± 0.54 %ID/g | Stomach uptake [1]: 0.41 ± 0.05 %ID/g
Compound: O=C(O)CC[C@H](NC(=O)N[C@@H](CCCCNC(=O)[C@@H](Cc1ccc2ccccc2c1)NC(=O)C1CCC(CNC(=O)CN2CCN3CCN(CC2)CC(=O)[O][Al]([18F])[O]C(=O)C3)CC1)C(=O)O)C(=O)O (stereo partly drawn) [[^18F]AlF-PSMA-BCH]

IC50 (FAP): 14.5 nM
Compound: N#C[C@@H]1CC(F)(F)CN1C(=O)CNC(=O)c1ccnc2ccc(OCCCN3CCN(C(=O)CN4CCN(CC(=O)O)CCN(CC(=O)O)CC4)CC3)cc12 [NOTA-FAPI-42, reference compound]

A549-FAP tumor uptake [2]: 5.25 ± 0.27 %ID/g | Blood uptake [2]: 1.52 ± 0.22 %ID/g | Bone uptake [2]: 7.29 ± 1.52 %ID/g | Brain uptake [2]: 0.10 ± 0.01 %ID/g | Gall bladder uptake [2]: 10.58 ± 0.83 %ID/g | Heart uptake [2]: 0.76 ± 0.09 %ID/g | Kidney uptake [2]: 1.86 ± 0.11 %ID/g | Liver uptake [2]: 0.83 ± 0.19 %ID/g | Lung uptake [2]: 0.96 ± 0.11 %ID/g | Muscle uptake [2]: 1.86 ± 0.32 %ID/g | Small intestine uptake [2]: 2.85 ± 0.91 %ID/g | Spleen uptake [2]: 0.64 ± 0.04 %ID/g | Stomach uptake [2]: 0.56 ± 0.03 %ID/g
Compound: N#C[C@@H]1CC(F)(F)CN1C(=O)CNC(=O)c1ccnc2ccc(OCCCN3CCN(C(=O)CN4CCN5CCN(CC4)CC(=O)[O][Al]([F])[O]C(=O)C5)CC3)cc12 [[^18F]FAPI-42, reference compound]

IC50 (PSMA): 2.5 nM
Compound: O=C(O)CC[C@H](NC(=O)N[C@@H](CCCCNC(=O)[C@@H](Cc1ccc2ccccc2c1)NC(=O)C1CCC(CNC(=O)CN2CCN(CC(=O)O)CCN(CC(=O)O)CC2)CC1)C(=O)O)C(=O)O (stereo partly drawn) [NOTA-PSMA-BCH, reference compound]
